No end group written: not given here.
Key:
[1] = system: BMP-12; assay: Binding of BMP-12 to peptide-coupled affinity resins in 96 well filter plate
Description: The coupled resins, plus an unconjugated resin for use as a control, were suspended in 16% ethanol, 150 mM NaCl, and 20 mM Tris buffer at pH 7.5 at a 25% v/v ratio (e.g., 25% ethanol, 75% Tris buffer). A Tecan liquid-handling robot was employed to aliquot 200 µL of each slurry into one of eight rows of a 96 well polystyrene filter plate (0.45 µm hydrophilic filters, Whatman catalog number 770-1806). Spinning at 1200 g for 3 min removed the liquid phase, leaving 50 µL of wet resin on the filters. The resins were then equilibrated with the loading buffers listed in Table 6 (K is a coefficient characterizing the strength of protein binding to a particular resin in a particular buffer). […] The resins were loaded by transferring 150 µL from the load plate to the filter plate and then incubating 20 min on a shaking platform to facilitate binding. The filter plate was spun down and the filtrate collected in a 96 well UV plate. The protein concentration in the filtrate, or flow-through, was calculated as (A280-A320)/1.3. The filter plate was then washed with 150 µL of 100 mM acetic acid, followed by 150 µL of 4M guanidine-HCl and 50 mM sodium acetate at pH 4.0. The protein concentration was measured in the new filtrate as described above. […] However, for peptides 750 and 751, the binding was strong in 25 mM MES at pH 6 but weak in 50 mM acetic acid with 0.1 M NaCl at pH 3.0, which can allow an efficient binding-elution process without the need for chaotrops or organic reagents. Flow-through and acetic acid elution samples from column 4 of the plate (loaded with MES pH 6) were analyzed on a gel (Figure 14).

[2] = system: BMP-3; assay: Purification of BMP-3 on immobilized finger 1 peptide column, comparison of ligands; assay type: binding; details: compared with the BMP-2 mutant peptide
Excerpt: ([…] […]) was used to purify BMP-3 as in Example 1. […] Less of the propeptide fragment eluted than in Example 6.

[3] = 50 mM acetic acid with 0.1 M NaCl at pH 3.0

Substance | binding of BMP 12 by coupled resin ([1]; loading buffers 1-5) | binding of BMP 12 by coupled resin ([1]; 25 mM MES at pH 6) | binding of BMP 12 by coupled resin [1, 3] | further results
Ac-RDLGWQDWIIAPEGYAAFYSDGEK [Peptide 748] | high affinity | – | – | –
Ac-LYVDFSDVGWNDWIVAPPGYHAFYSHGEK [Peptide 747] | high affinity | – | – | –
KELGWDDWIIAPLDYEAYHCEGLC [BMP12 Fing1 WT] | – | – | – | effectiveness of immobilized ligand [2]: less effective than the BMP-2 mutant

Continued, in another order:

binding of BMP 12 by coupled resin ([1]; loading buffers 1-5) | binding of BMP 12 by coupled resin ([1]; 25 mM MES at pH 6) | binding of BMP 12 by coupled resin [1, 3] | Substance | further results
– | strong | weak | Ac-SDVGWNDWIVAPPGYHAFYCHGEK [Peptide 750] | –
– | strong | weak | Ac-SDVGWNDWIVAPPGYHAFYSHGEK [Peptide 751] | –
high affinity | – | – | Ac-ELGWDDWIIAPLDYEAYHSEGLK [Peptide 749] | –

From patent EP2377876A1, “Use of proteins and peptides of the TGF-BETA superfamily for purification and therapeutic methods” (Wyeth LLC, priority 2006, dated 2011)
